Test results taken from PubChem BioAssay (NCI).
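At the GI50, growth is halved. Definition used: TGI = concentration required for complete inhibition of growth.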

Tests used:
Assay in all cases: NCI anticancer screen, dose series, 384-well format; in the data active = GI50 below about 0.43 µM; inactive = the rest
786-0 renal = tested on: 786-0 renal
A498 renal = tested on: A498 renal
A549 NSCLC = tested on: A549 NSCLC
ACHN renal = tested on: ACHN renal
BT-549 breast = tested on: BT-549 breast
CAKI-1 renal = tested on: CAKI-1 renal
COLO 205 colon = tested on: COLO 205 colon
DU-145 prostate = tested on: DU-145 prostate
EKVX NSCLC = tested on: EKVX NSCLC
HCT-116 colon = tested on: HCT-116 colon
HCT-15 colon = tested on: HCT-15 colon
HL-60(TB) leukemia = tested on: HL-60(TB) leukemia
HOP-62 NSCLC = tested on: HOP-62 NSCLC
HOP-92 NSCLC = tested on: HOP-92 NSCLC
HS 578T breast = tested on: HS 578T breast
HT29 colon = tested on: HT29 colon
IGROV1 ovarian = tested on: IGROV1 ovarian
K-562 leukemia = tested on: K-562 leukemia
KM12 colon = tested on: KM12 colon
M14 melanoma = tested on: M14 melanoma
MALME-3M melanoma = tested on: MALME-3M melanoma
MCF7 breast = tested on: MCF7 breast
MDA-MB-231 breast = tested on: MDA-MB-231 breast
MDA-MB-435 melanoma = tested on: MDA-MB-435 melanoma
MDA-MB-468 breast = tested on: MDA-MB-468 breast
MOLT-4 leukemia = tested on: MOLT-4 leukemia
NCI-H226 lung = tested on: NCI-H226 lung
NCI-H23 lung = tested on: NCI-H23 lung
NCI-H322M lung = tested on: NCI-H322M lung
NCI-H460 NSCLC = tested on: NCI-H460 NSCLC
NCI-H522 lung = tested on: NCI-H522 lung
OVCAR-3 ovarian = tested on: OVCAR-3 ovarian
OVCAR-4 ovarian = tested on: OVCAR-4 ovarian
OVCAR-5 ovarian = tested on: OVCAR-5 ovarian
OVCAR-8 ovarian = tested on: OVCAR-8 ovarian
PC-3 prostate = tested on: PC-3 prostate
RXF 393 renal = tested on: RXF 393 renal
SF-268 CNS = tested on: SF-268 CNS
SF-295 CNS = tested on: SF-295 CNS
SF-539 CNS = tested on: SF-539 CNS
SK-MEL-2 melanoma = tested on: SK-MEL-2 melanoma
SK-MEL-28 melanoma = tested on: SK-MEL-28 melanoma
SK-MEL-5 melanoma = tested on: SK-MEL-5 melanoma
SK-OV-3 ovarian = tested on: SK-OV-3 ovarian
SN12C renal = tested on: SN12C renal
SNB-19 CNS = tested on: SNB-19 CNS
SNB-75 CNS = tested on: SNB-75 CNS
SR leukemia = tested on: SR leukemia
SW-620 colon = tested on: SW-620 colon
T-47D breast = tested on: T-47D breast
TK-10 renal = tested on: TK-10 renal
U251 glioblastoma = tested on: U251 glioblastoma
UACC-257 melanoma = tested on: UACC-257 melanoma
UACC-62 melanoma = tested on: UACC-62 melanoma
UO-31 renal = tested on: UO-31 renal

Cc1sc2c(c1C)C(c1ccc(Cl)cc1)=N[C@@H](CC(=O)NCCCN1CCN(C)CC1)c1nnc(C)n1-2
11400 nM: TGI (BT-549 breast) | TGI (HS 578T breast)
729 nM: TGI (MDA-MB-468 breast)
1630 nM: TGI (OVCAR-4 ovarian)
26900 nM: TGI (SF-539 CNS)
26400 nM: TGI (MALME-3M melanoma)
352 nM: TGI (NCI-H522 lung)
10600 nM: TGI (MOLT-4 leukemia)
71600 nM: TGI (T-47D breast)
> 100000 nM: TGI (786-0 renal) | TGI (A498 renal) | TGI (A549 NSCLC) | TGI (ACHN renal) | TGI (CAKI-1 renal) | TGI (COLO 205 colon) | TGI (DU-145 prostate) | TGI (EKVX NSCLC) | TGI (HCT-116 colon) | TGI (HCT-15 colon) | TGI (HOP-62 NSCLC) | TGI (HOP-92 NSCLC) | TGI (HT29 colon) | TGI (IGROV1 ovarian) | TGI (K-562 leukemia) | TGI (KM12 colon) | TGI (M14 melanoma) | TGI (MDA-MB-231 breast) | TGI (MDA-MB-435 melanoma) | TGI (NCI-H226 lung) | TGI (NCI-H322M lung) | TGI (NCI-H460 NSCLC) | TGI (OVCAR-3 ovarian) | TGI (OVCAR-5 ovarian) | TGI (OVCAR-8 ovarian) | TGI (PC-3 prostate) | TGI (SF-268 CNS) | TGI (SF-295 CNS) | TGI (SK-MEL-28 melanoma) | TGI (SK-OV-3 ovarian) | TGI (SN12C renal) | TGI (SNB-19 CNS) | TGI (SNB-75 CNS) | TGI (SR leukemia) | TGI (SW-620 colon) | TGI (TK-10 renal) | TGI (U251 glioblastoma) | TGI (UACC-62 melanoma) | TGI (UO-31 renal)
56900 nM: TGI (NCI-H23 lung)
24500 nM: TGI (SK-MEL-2 melanoma)
27 nM: TGI (HL-60(TB) leukemia)
37900 nM: TGI (SK-MEL-5 melanoma)
4880 nM: TGI (MCF7 breast)
inactive: GI50 ([…]-0 renal) 1790 nM | GI50 (A498 renal) 3310 nM | GI50 (A549 NSCLC) 854 nM | GI50 (ACHN renal) 10200 nM | GI50 (CAKI-1 renal) 677 nM | GI50 (DU-145 prostate) 7160 nM | GI50 (EKVX NSCLC) 31500 nM | GI50 (HCT-15 colon) 13000 nM | GI50 (HOP-62 NSCLC) 448 nM | GI50 (HOP-92 NSCLC) 486 nM | GI50 (KM12 colon) 56000 nM | GI50 (MDA-MB-435 melanoma) 1330 nM | GI50 (NCI-H226 lung) 1520 nM | GI50 (NCI-H460 NSCLC) 453 nM | GI50 (OVCAR-5 ovarian) 666 nM | GI50 (OVCAR-8 ovarian) 1210 nM | GI50 (PC-3 prostate) 583 nM | GI50 (SF-268 CNS) 12000 nM | GI50 (SF-295 CNS) 7300 nM | GI50 (SK-MEL-28 melanoma) 10100 nM | GI50 (SK-MEL-5 melanoma) 462 nM | GI50 (SN12C renal) > 100000 nM | GI50 (SNB-19 CNS) > 100000 nM | GI50 (SNB-75 CNS) 443 nM | GI50 (SW-620 colon) 23300 nM | GI50 (T-47D breast) 529 nM | GI50 (TK-10 renal) 1190 nM | GI50 (U251 glioblastoma) 2490 nM | GI50 (UACC-257 melanoma) 985 nM | GI50 (UO-31 renal) 30200 nM
active: GI50 (BT-549 breast) 238 nM | GI50 (COLO 205 colon) 257 nM | GI50 (HCT-116 colon) 407 nM | GI50 (HL-60(TB) leukemia) 12.8 nM | GI50 (HS 578T breast) 38.1 nM | GI50 (HT29 colon) 143 nM | GI50 (IGROV1 ovarian) 277 nM | GI50 (K-562 leukemia) 154 nM | GI50 (M14 melanoma) 404 nM | GI50 (MALME-3M melanoma) 330 nM | GI50 (MCF7 breast) 24.2 nM | GI50 (MDA-MB-231 breast) 67.4 nM | GI50 (MDA-MB-468 breast) 48.4 nM | GI50 (MOLT-4 leukemia) 105 nM | GI50 (NCI-H23 lung) 308 nM | GI50 (NCI-H322M lung) 226 nM | GI50 (NCI-H522 lung) 31.6 nM | GI50 (OVCAR-3 ovarian) 148 nM | GI50 (OVCAR-4 ovarian) 148 nM | GI50 (RXF 393 renal) 338 nM | GI50 (SF-539 CNS) 312 nM | GI50 (SK-MEL-2 melanoma) 36.6 nM | GI50 (SK-OV-3 ovarian) 208 nM | GI50 (SR leukemia) 71.1 nM | GI50 (UACC-62 melanoma) 53.8 nM
21900 nM: TGI (UACC-257 melanoma)
2900 nM: TGI (RXF 393 renal)
